Test results from ChEMBL document CHEMBL6127049, “Discovery of the selective and nanomolar inhibitor of DPP-4 more potent than sitagliptin by structure-guided rational design” (Eur J Med Chem, 2024).
Calls of active or inactive are those of the source. The calls are words filed in the database; no cut-off is given here.

Columns and labels:
Rattus norvegicus [1] = assay: Anti-diabetic activity in normal Wistar rat model assessed as blood glucose level at 20 mg/kg, po followed by treated administered 3 mg/kg orally measured after 60 mins by Oral glucose tolerance test (reference value: 153.74 + /- 3.94 mg/dL); format: functional; conditions: 1 h
Rattus norvegicus [2] = assay: Reduction of alkaline phosphatase (ALP) level in STZ-induced type 2 diabetes male Wistar albino rat model at 20 mg/kg, po measured after 4 weeks by hepatic function test; format: functional, organism-based
Rattus norvegicus [3] = assay: Anti-diabetic activity in normal Wistar rat model assessed as blood glucose level at 10 mg/kg, po followed by treated administered 3 mg/kg orally measured after 90 mins by Oral glucose tolerance test (reference value: 134.11 + /- 4.64 mg/dL); format: functional; conditions: 1.5 h
Rattus norvegicus [4] = assay: Antihyperlipidemic effect in STZ-induced type 2 diabetes male Wistar albino rat model assessed as total cholesterol level at 20 mg/kg, po measured after 4 weeks (reference value: 227.04 +/- 4.10 mg/dL); format: functional
Rattus norvegicus [5] = assay: Anti-diabetic activity in normal Wistar rat model assessed as blood glucose level at 20 mg/kg, po followed by treated administered 3 mg/kg orally measured after 120 mins by Oral glucose tolerance test (reference value: 126.5 + /- 3.90 mg/dL); format: functional; conditions: 2 h
[6] = Acute toxicity in Balb/C mouse assessed as morphological changes in skin at 1250 to 2000 mg/kg, po; format: organism-based; conditions: in vivo, dose 1250-2000 mg/kg
[7] = Acute toxicity in Balb/C mouse assessed as morphological changes in salvation at 1250 to 2000 mg/kg, po; format: organism-based; conditions: in vivo, dose 1250-2000 mg/kg
Rattus norvegicus [8] = assay: Antihyperlipidemic effect in STZ-induced type 2 diabetes male Wistar albino rat model assessed as LDL level at 10 mg/kg, po measured after 4 weeks (reference value: 184.65 +/- 4.57 mg/dL); format: functional
Rattus norvegicus [9] = assay: Anti-diabetic activity in normal Wistar rat model assessed as blood glucose level at 10 mg/kg, po followed by treated administered 3 mg/kg orally measured immediately after administration by Oral glucose tolerance test (reference value: 105.12 mg/dL); format: functional

CC1=C([N+](=O)[O-])C(c2ccc(F)c(F)c2)N=C(N)N1C(=O)CN1Cc2cn(S(C)(=O)=O)nc2C1 (centres undefined)
Activity (Rattus norvegicus [1]): 115.22 mg/dL
Activity (Rattus norvegicus [2]): Active
Activity (Rattus norvegicus [3]): 113.96 mg/dL
Activity (Rattus norvegicus [4]): 137.34 mg/dL
Activity (Rattus norvegicus [5]): 111.56 mg/dL
Activity [6]: Non-Toxic
Activity [7]: Non-Toxic
Activity (Rattus norvegicus [8]): 135.67 mg/dL
Activity (Rattus norvegicus [9]): 103.57 mg/dL
